From ChEMBL document CHEMBL1201862, “PubChem BioAssay data set” (2004)
Active and inactive are the calls of the source.

How the values were obtained:
[1] = biological target: Albumin (Bos taurus, UniProt P02769); assay: Counterscreen for inhibitors of T-cell receptor (TCR)-CD3 interaction: Fluorescence-based biochemical high throughput dose response assay to identify inhibitors of T-cell receptor (TCR)-CD3 interaction using a TAMRA-labeled BSA probe.; format: functional
[2] = biological target: T1, Sentrin-specific protease 8 (Homo sapiens, UniProt Q96LD8); assay: inhibition of human SENP8 cleavage activity – biochemical, luminescence, SAR follow-up (AID 504501); format: functional
T1 sequence (Q96LD8 whole entry): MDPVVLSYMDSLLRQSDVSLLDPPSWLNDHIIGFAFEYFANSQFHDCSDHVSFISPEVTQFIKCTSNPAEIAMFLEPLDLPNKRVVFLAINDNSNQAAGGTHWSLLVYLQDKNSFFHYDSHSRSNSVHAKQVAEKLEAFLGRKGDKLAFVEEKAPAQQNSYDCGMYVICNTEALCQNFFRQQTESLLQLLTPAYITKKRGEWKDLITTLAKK

[3] = biological target: T2, Caspase-3 (Homo sapiens, UniProt P42574); assay: SAR Analysis of small molecule inhibitors of Sentrin-specific proteases (SENPs) using a Caspase-3 Selectivity assay. [Related pubchem assays (depositor defined):AID2540, AID2599, AID434973, AID489001]; format: functional
T2 sequence (P42574 whole entry): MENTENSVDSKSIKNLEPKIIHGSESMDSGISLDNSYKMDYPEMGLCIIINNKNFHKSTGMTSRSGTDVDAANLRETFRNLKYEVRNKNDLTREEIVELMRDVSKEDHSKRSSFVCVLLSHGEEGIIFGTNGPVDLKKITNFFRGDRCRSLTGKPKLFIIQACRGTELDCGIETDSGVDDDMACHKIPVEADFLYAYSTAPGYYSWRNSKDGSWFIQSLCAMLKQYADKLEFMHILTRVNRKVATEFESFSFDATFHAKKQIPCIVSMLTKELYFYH

[4] = biological target: T3, Sentrin-specific protease 6 (Homo sapiens, UniProt Q9GZR1); assay: SAR Analysis of small molecule inhibitors of Sentrin-specific protease 6 (SENP6) using a Luminescent assay. [Related pubchem assays (depositor defined):AID2582, AID2599]; format: functional
T3 sequence (Q9GZR1 whole entry): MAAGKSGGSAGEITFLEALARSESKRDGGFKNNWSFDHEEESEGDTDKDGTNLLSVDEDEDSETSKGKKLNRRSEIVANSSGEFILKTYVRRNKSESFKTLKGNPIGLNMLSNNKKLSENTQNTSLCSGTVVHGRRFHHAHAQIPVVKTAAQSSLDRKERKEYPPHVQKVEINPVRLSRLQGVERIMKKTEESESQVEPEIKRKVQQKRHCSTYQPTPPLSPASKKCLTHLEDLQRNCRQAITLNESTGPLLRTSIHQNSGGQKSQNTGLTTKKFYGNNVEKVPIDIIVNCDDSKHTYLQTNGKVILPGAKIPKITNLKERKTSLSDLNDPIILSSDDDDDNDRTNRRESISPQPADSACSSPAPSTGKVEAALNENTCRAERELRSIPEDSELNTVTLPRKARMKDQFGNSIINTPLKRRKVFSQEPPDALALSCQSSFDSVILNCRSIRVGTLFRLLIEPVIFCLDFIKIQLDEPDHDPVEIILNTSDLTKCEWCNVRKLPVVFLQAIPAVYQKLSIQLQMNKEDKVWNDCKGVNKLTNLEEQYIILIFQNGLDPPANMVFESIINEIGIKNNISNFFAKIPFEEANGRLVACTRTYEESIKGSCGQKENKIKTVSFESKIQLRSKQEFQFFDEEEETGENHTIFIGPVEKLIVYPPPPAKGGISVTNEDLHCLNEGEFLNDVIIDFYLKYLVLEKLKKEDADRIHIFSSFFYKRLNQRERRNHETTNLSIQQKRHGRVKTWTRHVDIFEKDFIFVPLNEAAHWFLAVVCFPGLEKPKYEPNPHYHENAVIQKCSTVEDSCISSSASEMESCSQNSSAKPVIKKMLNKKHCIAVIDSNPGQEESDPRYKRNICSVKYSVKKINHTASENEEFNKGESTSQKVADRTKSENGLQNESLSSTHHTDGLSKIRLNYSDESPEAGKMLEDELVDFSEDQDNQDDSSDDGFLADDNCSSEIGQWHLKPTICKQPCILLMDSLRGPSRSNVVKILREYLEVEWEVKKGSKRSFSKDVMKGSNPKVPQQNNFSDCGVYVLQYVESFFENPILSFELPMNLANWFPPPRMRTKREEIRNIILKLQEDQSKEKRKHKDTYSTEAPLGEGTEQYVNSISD

[5] = biological target: T4, Sentrin-specific protease 7 (Homo sapiens, UniProt Q9BQF6); assay: inhibition of human SENP7 cleavage activity – biochemical, luminescence, SAR follow-up (AID 504497); format: functional
T4 sequence (Q9BQF6 whole entry): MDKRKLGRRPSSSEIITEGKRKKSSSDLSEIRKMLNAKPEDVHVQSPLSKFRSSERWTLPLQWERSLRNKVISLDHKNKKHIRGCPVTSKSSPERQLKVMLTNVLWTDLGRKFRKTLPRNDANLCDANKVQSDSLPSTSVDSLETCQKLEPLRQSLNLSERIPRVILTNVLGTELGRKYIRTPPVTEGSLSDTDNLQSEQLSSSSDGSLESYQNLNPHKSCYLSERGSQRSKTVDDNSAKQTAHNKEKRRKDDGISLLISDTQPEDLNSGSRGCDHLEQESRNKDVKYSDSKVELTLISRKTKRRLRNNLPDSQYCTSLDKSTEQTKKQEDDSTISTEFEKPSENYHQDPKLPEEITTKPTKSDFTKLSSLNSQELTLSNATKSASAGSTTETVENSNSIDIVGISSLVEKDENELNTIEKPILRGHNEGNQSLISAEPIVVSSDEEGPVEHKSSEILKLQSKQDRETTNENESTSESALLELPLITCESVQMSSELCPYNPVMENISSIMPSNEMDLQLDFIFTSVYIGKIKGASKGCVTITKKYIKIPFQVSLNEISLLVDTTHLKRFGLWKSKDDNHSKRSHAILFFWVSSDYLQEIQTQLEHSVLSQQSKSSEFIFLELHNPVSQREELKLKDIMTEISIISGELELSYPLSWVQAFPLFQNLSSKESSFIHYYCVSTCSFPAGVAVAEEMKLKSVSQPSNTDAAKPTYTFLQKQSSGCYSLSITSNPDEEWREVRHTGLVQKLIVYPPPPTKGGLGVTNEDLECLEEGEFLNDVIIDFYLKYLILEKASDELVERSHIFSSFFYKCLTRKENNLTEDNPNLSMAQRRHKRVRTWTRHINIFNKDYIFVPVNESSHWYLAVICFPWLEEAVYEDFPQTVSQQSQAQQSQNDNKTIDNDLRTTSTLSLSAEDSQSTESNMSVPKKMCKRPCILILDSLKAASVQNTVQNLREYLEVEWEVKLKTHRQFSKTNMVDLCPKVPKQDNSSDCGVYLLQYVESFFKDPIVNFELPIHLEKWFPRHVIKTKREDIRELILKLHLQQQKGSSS

[6] = system: P388/ADR; assay: cells; format: functional; details: Mus musculus
[7] = system: SN12K1; assay: cells; format: functional; details: Homo sapiens, SN12K1
[8] = system: P388; assay: cells; format: functional; details: Mus musculus
[9] = activation of miR-122 Renilla sensor silencing – cell-based, Huh7 psiCHECK-miR122, Renilla luciferase, cherry-picked, dose response (AID 651956); format: functional;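 note: huh7 hepatoma cells stably carrying a psiCHECK-2 miR-122 sensor plasmid; renilla luciferase signal reporting endogenous miR-122 activity after 48 h compound exposure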
[10] = intracellular Trypanosoma cruzi inhibitors in host cells – cell-based, plate reader, cherry-pick samples, set 3, dose response (AID 651818); format: functional;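 note: compounds incubated with infected cells for about four days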
[11] = NIH-3T3 fibroblast cytotoxicity, dose response, cytotoxicity control, cell-based, fluorescence, Alamar Blue, secondary assay (AID 2327); format: functional;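 note: NIH-3T3 mouse fibroblasts cultured with fluconazole at 8 µg/mL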
[12] = system: Streptococcus sp. 'group A'; assay: Streptococcus pyogenes SK(-)GAS viability under kanamycin – luminescence, BacTiterGlo, confirmation, counter-screen for streptokinase expression inhibitor project, dose response (AID 1900); format: functional, organism-based
[13] = fluconazole-exposed Candida albicans growth modulators – fluorescence, retest, confirmation (AID 2467); format: functional, cell-based
[14] = system: Streptococcus; assay: GAS UMAA2166 growth inhibition – luminescence, BacTiterGlo, counter-screen for streptokinase expression inhibitor project, dose response (AID 1915); format: functional, organism-based;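 note: potency for reduction of bacterial viability or growth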
[15] = biological target: T5, Fatty acid synthase (Homo sapiens, UniProt P49327); assay: inhibition of human FAS-TE enzyme activity – biochemical, endpoint fluorescence intensity, uHTS hits, dose response (AID 624327); format: functional;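 note: fluorescence from hydrolysis of an O-methyl fluorescein acyl ester substrate by the enzyme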
[16] = biological target: T5, Fatty acid synthase; assay: inhibition of human FAS-TE enzyme activity – biochemical, kinetic fluorescence intensity, dose response (AID 624326); format: functional;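 note: rate of fluorescence rise from hydrolysis of a fluorogenic O-methyl fluorescein ester substrate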

T5 sequence (P49327 whole entry): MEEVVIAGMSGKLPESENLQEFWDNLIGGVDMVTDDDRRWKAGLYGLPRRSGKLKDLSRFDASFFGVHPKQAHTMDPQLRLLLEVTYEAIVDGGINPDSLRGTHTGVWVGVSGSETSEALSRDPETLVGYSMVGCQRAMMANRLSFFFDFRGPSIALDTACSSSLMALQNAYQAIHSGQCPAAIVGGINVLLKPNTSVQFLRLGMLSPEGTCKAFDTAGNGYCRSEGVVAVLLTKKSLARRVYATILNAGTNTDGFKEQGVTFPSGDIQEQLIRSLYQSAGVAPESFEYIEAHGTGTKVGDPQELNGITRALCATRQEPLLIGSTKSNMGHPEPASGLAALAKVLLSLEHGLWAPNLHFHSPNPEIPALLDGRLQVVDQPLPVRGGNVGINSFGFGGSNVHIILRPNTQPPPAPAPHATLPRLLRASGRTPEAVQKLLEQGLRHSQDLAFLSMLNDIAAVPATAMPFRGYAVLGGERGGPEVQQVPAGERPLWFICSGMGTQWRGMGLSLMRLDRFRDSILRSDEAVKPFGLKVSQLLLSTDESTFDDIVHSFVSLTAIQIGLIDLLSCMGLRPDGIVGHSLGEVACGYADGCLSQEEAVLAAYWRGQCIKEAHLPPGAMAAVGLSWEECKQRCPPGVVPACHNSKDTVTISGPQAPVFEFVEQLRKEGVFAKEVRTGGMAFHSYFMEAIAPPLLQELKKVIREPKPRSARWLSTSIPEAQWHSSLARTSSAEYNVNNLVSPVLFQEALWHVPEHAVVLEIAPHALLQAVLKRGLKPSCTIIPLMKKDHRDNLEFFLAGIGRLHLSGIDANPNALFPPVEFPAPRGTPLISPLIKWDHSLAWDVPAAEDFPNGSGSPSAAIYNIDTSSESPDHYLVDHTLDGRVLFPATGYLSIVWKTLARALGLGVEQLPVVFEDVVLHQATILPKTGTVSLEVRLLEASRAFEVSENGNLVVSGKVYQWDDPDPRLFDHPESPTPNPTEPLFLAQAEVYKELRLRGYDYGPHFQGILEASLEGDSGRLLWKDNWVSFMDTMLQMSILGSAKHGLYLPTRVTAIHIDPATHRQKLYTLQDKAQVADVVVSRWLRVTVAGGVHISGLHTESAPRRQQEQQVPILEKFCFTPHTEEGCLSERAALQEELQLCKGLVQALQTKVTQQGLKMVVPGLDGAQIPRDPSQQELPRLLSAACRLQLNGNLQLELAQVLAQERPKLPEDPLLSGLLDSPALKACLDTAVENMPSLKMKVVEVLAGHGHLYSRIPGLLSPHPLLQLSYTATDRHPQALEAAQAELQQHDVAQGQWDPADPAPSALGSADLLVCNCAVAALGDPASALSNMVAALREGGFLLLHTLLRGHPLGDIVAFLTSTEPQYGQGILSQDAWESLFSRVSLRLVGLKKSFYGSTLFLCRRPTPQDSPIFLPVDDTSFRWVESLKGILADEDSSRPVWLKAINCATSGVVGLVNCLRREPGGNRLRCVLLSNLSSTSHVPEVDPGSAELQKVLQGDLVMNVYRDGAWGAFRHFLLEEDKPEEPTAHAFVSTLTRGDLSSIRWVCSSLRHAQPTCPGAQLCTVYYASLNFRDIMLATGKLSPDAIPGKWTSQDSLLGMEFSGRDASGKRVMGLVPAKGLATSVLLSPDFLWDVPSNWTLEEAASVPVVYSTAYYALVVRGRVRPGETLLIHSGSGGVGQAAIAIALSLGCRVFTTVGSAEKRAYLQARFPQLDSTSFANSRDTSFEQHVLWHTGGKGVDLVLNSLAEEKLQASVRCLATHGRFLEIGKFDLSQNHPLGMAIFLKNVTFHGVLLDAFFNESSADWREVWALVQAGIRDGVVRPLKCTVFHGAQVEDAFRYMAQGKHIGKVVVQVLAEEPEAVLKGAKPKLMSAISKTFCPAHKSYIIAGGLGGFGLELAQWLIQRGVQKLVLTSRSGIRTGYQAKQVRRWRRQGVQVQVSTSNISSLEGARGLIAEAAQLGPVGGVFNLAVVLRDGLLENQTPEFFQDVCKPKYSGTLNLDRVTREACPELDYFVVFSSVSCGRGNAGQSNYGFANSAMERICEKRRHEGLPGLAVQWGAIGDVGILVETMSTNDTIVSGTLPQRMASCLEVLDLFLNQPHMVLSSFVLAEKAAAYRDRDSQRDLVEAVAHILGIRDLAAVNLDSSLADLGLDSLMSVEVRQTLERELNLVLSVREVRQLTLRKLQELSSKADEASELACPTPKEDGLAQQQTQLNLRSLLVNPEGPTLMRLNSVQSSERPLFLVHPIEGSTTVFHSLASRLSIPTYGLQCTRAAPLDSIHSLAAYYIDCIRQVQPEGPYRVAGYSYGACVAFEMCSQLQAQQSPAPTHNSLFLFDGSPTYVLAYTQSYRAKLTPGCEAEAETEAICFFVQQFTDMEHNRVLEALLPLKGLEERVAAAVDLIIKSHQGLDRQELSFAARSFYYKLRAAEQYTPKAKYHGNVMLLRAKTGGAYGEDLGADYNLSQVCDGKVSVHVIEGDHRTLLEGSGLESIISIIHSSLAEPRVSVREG
Albumin, sequence (P02769 whole entry): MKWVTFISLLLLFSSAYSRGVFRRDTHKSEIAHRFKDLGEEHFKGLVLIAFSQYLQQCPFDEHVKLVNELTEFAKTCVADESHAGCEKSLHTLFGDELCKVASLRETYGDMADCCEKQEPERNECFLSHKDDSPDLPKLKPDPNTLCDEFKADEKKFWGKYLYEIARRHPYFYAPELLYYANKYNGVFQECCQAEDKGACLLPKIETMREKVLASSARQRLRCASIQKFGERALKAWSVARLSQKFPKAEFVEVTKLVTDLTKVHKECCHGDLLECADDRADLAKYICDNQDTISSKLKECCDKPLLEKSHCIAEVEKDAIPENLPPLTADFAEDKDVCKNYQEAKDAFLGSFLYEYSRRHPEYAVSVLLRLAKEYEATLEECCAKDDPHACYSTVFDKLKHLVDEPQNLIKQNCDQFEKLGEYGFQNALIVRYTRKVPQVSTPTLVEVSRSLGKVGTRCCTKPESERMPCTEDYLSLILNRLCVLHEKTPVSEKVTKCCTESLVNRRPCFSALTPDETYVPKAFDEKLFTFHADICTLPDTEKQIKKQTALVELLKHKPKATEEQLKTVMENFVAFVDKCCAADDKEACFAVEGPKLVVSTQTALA

For CC(=O)c1cccc(NC(=O)C(OC(=O)c2cccc(S(=O)(=O)N(C)c3ccccc3)c2)c2ccccc2)c1 (stereo not drawn), which IC50 [1] is on record?
Its IC50 is > 94.1 µM (inactive).

Which results are given for COc1ccc(C(=O)NN=c2c(=O)c3ccccc3c2=O)cc1?
IC50 [2]: > 99 µM (inactive); IC50 [3]: > 99 µM (inactive); IC50 [4]: 4.15 µM (active); IC50 [5]: > 99 µM (inactive)

For Fc1ccc(N/N=C/c2c[nH]c3ccccc23)cc1, which IC50 [2] is on record?
The IC50 was 45.2 µM (active).

And the IC50 [3]?
The IC50 was > 99 µM (inactive).

What about the IC50 [4] of the same compound?
Its IC50 is 42.2 µM (active).

What about the IC50 [5] of the same compound?
Its IC50 is 27.2 µM (active).

For O=C(O)CCN1C(=O)/C(=C/c2cccc(OCC(=O)Nc3ccc(Cl)cc3)c2)SC1=S, which IC50 [2] is on record?
Its IC50 is 92.8 µM (active).

What about the IC50 [3] of the same compound?
Its IC50 is > 99 µM (inactive).

And the IC50 [4]?
The IC50 was 62.1 µM (active).

And the IC50 [5]?
Its IC50 is 78.2 µM (active).

Which IC50 [2] does the source give for O=C(Nc1ccc(F)cc1)c1ccc2c(c1)OCO2 here?
Its IC50 is 8.03 µM (active).

And the IC50 [3]?
The IC50 was 1.92 µM (active).

And the IC50 [4]?
The IC50 was 7.53 µM (active).

And the IC50 [5]?
Its IC50 is 2.75 µM (active).

Which results are given for O=C1ON(Cc2ccccc2)C(c2ccccc2)N1c1ccccc1 (stereo not drawn)?
GI50 [6]: 54 µM (inactive); GI50 [7]: > 100 µM (inactive); GI50 [8]: 7.45 µM (inactive)

What does the source list for O=NN1C(c2ccccc2)CCCC1c1ccccc1 (stereo not drawn)?
GI50 [6]: 31.8 µM (inactive); GI50 [7]: > 63.5 µM (inactive); GI50 [8]: 27.5 µM (inactive)

Which results are given for COC(=O)c1ccc(/N=N/N(C)COc2ccc([N+](=O)[O-])cc2)cc1?
GI50 [6]: 23.6 µM (inactive); GI50 [7]: 40.2 µM (inactive); GI50 [8]: 37.7 µM (inactive)

Which GI50 [6] does the source give for COC1=C(C)C(=O)C2=C(C1=O)C1C3CC4=C(C(=O)C(OC)=C(C)C4=O)C(CNC(=O)C(C)O)N3C(C#N)C(C2)N1C (stereo not drawn) here?
Its GI50 is 0.203 µM (active).

What about the GI50 [7] of the same compound?
Its GI50 is < 0.01 µM (active).

What about the GI50 [8] of the same compound?
Its GI50 is < 0.01 µM (active).

With O=S(=O)(O)c1ccc(/N=N\c2ccc(/N=N/c3ccc(/C=C/c4ccc(/N=[N+](\[O-])c5ccc(/C=C/c6ccc(/N=N/c7ccc(/N=N/c8ccc(S(=O)(=O)O)cc8)c8ccccc78)cc6S(=O)(=O)O)c(S(=O)(=O)O)c5)cc4S(=O)(=O)O)c(S(=O)(=O)O)c3)c3ccccc23)cc1 as the compound, how does the GI50 [7] read?
Its GI50 is > 100 µM (inactive).

What about the GI50 [8] of the same compound?
The GI50 was > 100 µM (inactive).

With C/C=C/c1ccc([C@@H]2[C@@H](CO)N(C(=O)Cc3cccnc3)[C@H]2CNC(C)=O)cc1 as the compound, how does the AC50 [9] read?
The AC50 was 28.6 µM (active).

Which AC50 [10] does the source give for C[C@@H]1CN([C@@H](C)CO)C(=O)c2cccc(NC(=O)Nc3ccc(C(F)(F)F)cc3)c2O[C@H]1CN(C)Cc1ccc(Cl)c(Cl)c1 here?
Its AC50 is 0.919 µM (active).

For C[C@H]1CN([C@@H](C)CO)C(=O)c2cc(C#CC3CCCC3)cnc2O[C@H]1CN(C)C(=O)Cc1ccccn1, which AC50 [9] is on record?
Its AC50 is 21.3 µM (active).

Which AC50 [10] does the source give for C[C@@H]1CN([C@H](C)CO)C(=O)Cc2cc(NC(=O)Cc3cn(C)c4ccccc34)ccc2O[C@@H]1CN(C)Cc1ccc(Cl)c(Cl)c1 here?
Its AC50 is 5.18 µM (active).

With C[C@H](CO)N1C[C@H](C)[C@H](CN(C)CC2CCCCC2)Oc2ccc(NC(=O)Nc3ccc(C(F)(F)F)cc3)cc2CC1=O as the compound, how does the AC50 [10] read?
The AC50 was 2.72 µM (active).

Which results are given for O=C(N/N=C/c1cc([N+](=O)[O-])ccc1O)/C(=C\c1cccs1)NC(=O)c1ccccc1?
EC50 [11]: > 160 µM (inactive); EC50 [12]: 0.76 µM (active); EC50 [13]: 3.32 µM (active); EC50 [14]: 2.16 µM (active); IC50 [15]: 15.2 µM (active); IC50 [16]: 13.8 µM (active); IC50 [1]: > 94.1 µM (inactive)
